In article PMC3881575, “Biochemical and Bioinformatic Characterization of Type II Metacaspase Protein (TaeMCAII) from Wheat” (Plant Molecular Biology Reporter, 2012):
Each block holds one compound with its values, some of them ahead of it.

How the values were obtained:
Assay in all cases: colorimetric pNA release, […] nm
Type in all cases: biochemical
TaeMCAII [1] = target: T1, TaeMCAII (Triticum aestivum, UniProt D1MBU0, DEL149-214); details: 50 μM Ac-VRPR-pNa, pH 7.0, 30 mM CaCl2, 10 mM DTT; 1 h preincubation at 30°C; competitive
T1 construct: gene MCAII; full-length ORF (405 residues, 44 kDa) in pET-28a(+), N-terminal His6 tag, E. coli BL21(DE3)pLysS, Ni-NTA; autoprocessed after Lys148 and Arg214 (66-residue linker removed) into 16 kDa N-terminal and 20 kDa C-terminal subunits
T1 sequence (D1MBU0 1-148): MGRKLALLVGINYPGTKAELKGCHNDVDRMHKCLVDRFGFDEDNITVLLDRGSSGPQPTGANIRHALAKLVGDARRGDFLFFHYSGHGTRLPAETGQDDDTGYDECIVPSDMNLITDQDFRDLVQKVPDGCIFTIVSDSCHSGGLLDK
T1 sequence (D1MBU0 215-405): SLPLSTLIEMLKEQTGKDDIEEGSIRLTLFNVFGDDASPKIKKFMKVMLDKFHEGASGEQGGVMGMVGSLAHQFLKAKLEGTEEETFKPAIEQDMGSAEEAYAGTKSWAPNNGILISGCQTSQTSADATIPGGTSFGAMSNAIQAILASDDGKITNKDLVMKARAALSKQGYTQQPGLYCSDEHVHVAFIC

TaeMCAII [2] = target: T1, TaeMCAII; details: 50 μM Ac-VRPR-pNa, pH 7.0, 30 mM CaCl2, 10 mM DTT; 1 h preincubation at 30°C; irreversible, covalent
TaeMCAII [3] = target: T1, TaeMCAII; details: 50 μM Ac-VRPR-pNa, pH 7.0, 30 mM CaCl2, 10 mM DTT; 1 h preincubation at 30°C; irreversible, covalent; remark: listed apart in the source

% decrease of activity at 10 μM (TaeMCAII [1]): 88%
Structure (SMILES): CC(=O)N[C@@H](CC(C)C)C(=O)N[C@@H](CC(C)C)C(=O)N[C@H](C=O)CCCNC(=N)N [leupeptin]

Structure (SMILES): Cc1ccc(S(=O)(=O)N[C@@H](CCCCN)C(=O)CCl)cc1 [TLCK, N^α-tosyl-L-lysine-chloromethyl ketone]
% decrease of activity at 100 μM (TaeMCAII [2]): 43%

% activity retained at 100 μM (TaeMCAII [3]): 89%
Structure (SMILES): CC(C)C[C@H](NC(=O)[C@@H]1O[C@H]1C(=O)O)C(=O)NCCCCN=C(N)N [E-64, 1-trans-epoxysuccinylleucylamide-(4-guanido)-butane]
